Structures can show the parent of a compound that is named as a salt.
target: T1, human MCH-1 receptor (Homo sapiens, UniProt Q99705); experiment: Binding assay for human MCH-1 receptor (radioligand displacement); conditions: membranes from CHO-K1 cells expressing human MCH-1 receptor; 1.4 nM [3H]-labeled compound; 60 min at 25° C.; Ki from Cheng Prusoff equation; read-out: MCH1 Ki
T1 construct: purchased Euroscreen Batch 1138
Description: Evaluation of the affinity of compounds for the human MCH-1 receptor was accomplished using 4-(3,4,5-tritritiumbenzyloxy)-1-(1-(2-(pyrrolidin-1-yl)ethyl)-1H-indazol-5-yl)pyridin-2(1H)-one and membranes prepared from stable CHO-K1 cells expressing the human MCH-1 receptor obtained from Euroscreen (Batch 1138). Cell membrane homogenates (8.92 μg protein) were incubated for 60 min at 25° C. with 1.4 nM of the [^3H]-labeled compound in the absence or presence of the test compound in 50 mM Tris-HCl buffer, pH 7.4. Nonspecific binding was determined in the presence of 50 μM 1-(5-(4-cyanophenyl)bicyclo[3.1.0]hexan-2-yl)-3-(4-fluoro-3-(trifluoromethyl)phenyl)-1-(3-(4-methylpiperazin-1-yl)propyl)urea. Following incubation, the samples were filtered rapidly under vacuum through Skatron 11731 filters, pre-soaked in 0.5% polyethylenimine, and washed with ice-cold 50 mM Tris-HCl buffer, pH 7.4, (wash setting 9,9,0) using a Skatron cell harvester. The filters were counted for radioactivity in a liquid scintillation counter (Tri-Carb 2100TR, Packard) using a scintillation cocktail (Ultima Gold MV, Perkin Elmer).
The results are expressed as a percent inhibition of the control radioligand specific binding. The IC50 value (concentration causing a half-maximal inhibition of control specific binding) and Hill coefficient (nH) were determined by non-linear regression analysis of the competition curve using Hill equation curve fitting. The inhibition constant (Ki) was calculated from the Cheng Prusoff equation: (Ki=IC50/(1+(L/KD)), where L=concentration of radioligand in the assay, and KD=affinity of the radioligand for the receptor.

T1 sequence (Q99705 whole entry): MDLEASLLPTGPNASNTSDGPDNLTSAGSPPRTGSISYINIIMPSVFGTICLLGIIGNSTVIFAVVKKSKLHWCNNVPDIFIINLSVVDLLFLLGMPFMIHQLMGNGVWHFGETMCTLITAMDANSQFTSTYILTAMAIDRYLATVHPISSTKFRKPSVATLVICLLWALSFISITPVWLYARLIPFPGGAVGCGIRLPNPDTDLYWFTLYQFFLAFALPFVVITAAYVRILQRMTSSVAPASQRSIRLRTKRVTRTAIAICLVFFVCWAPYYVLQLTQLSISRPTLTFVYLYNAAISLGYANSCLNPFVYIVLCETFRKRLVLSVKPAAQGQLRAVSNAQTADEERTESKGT

Compound	Ki
CC(=O)N1Cc2c(n(C)c3cc(N4CCN(CCc5ccc(Cl)cc5)CC4=O)ccc23)CC1C (single isomer, unassigned; enantiomer a) [Example 18, 1-(2-Acetyl-3,5-dimethyl-2,3,4,5-tetrahydro-1H-pyrido[4,3-b]indol-7-yl)-4-(4-chlorophenethyl)piperazin-2-one (Enantiomer A)]	49 nM
Cn1c2c(c3ccc(N4CCN(CCc5ccccc5)CC4=O)cc31)CCNC2 [Example 2, 1-(9-Methyl-2,3,4,9-tetrahydro-1H-pyrido[3,4-b]indol-7-yl)-4-phenethylpiperazin-2-one hydrochloride]	26 nM
Cn1c2c(c3ccc(N4CCN(CCc5ccccn5)CC4=O)cc31)CCNC2 [Example 3, 1-(9-Methyl-2,3,4,9-tetrahydro-1H-pyrido[3,4-b]indol-7-yl)-4-(2-(pyridin-2-yl)ethyl)piperazin-2-one dihydrochloride]	43 nM
CN1CCc2c(n(C)c3cc(N4CCN(CCc5ccccc5)CC4=O)ccc23)C1 [Example 4, 1-(2,9-Dimethyl-2,3,4,9-tetrahydro-1H-pyrido[3,4-b]indol-7-yl)-4-phenethylpiperazin-2-one dihydrochloride]	21 nM
Cn1c2c(c3ccc(N4CCN(c5ccc(C(F)(F)F)cn5)CC4=O)cc31)CNCC2 [Example 5, 1-(5-Methyl-2,3,4,5-tetrahydro-1H-pyrido[4,3-b]indol-7-yl)-4-(5-(trifluoromethyl)pyridin-2-yl)piperazin-2-one dihydrochloride]	534 nM
Cn1c2c(c3ccc(N4CCN(CCc5ccccn5)CC4=O)cc31)CNCC2 [Example 8, 1-(5-Methyl-2,3,4,5-tetrahydro-1H-pyrido[4,3-b]indol-7-yl)-4-(2-(pyridin-2-yl)ethyl)piperazin-2-one dihydrochloride]	123 nM
O=C1CN(CCc2ccccc2)CCN1c1ccc2c3c([nH]c2c1)CCNC3 [Example 9, 4-Phenethyl-1-(2,3,4,5-tetrahydro-1H-pyrido[4,3-b]indol-7-yl)piperazin-2-one dihydrochloride]	17 nM
CC(=O)N1CCc2c(c3ccc(N4CCN(CCc5ccccc5)CC4=O)cc3n2C)C1 [Example 10, 1-(2-Acetyl-5-methyl-2,3,4,5-tetrahydro-1H-pyrido[4,3-b]indol-7-yl)-4-phenethylpiperazin-2-one]	57 nM
Cn1c2c(c3ccc(N4CCN(CCc5ccc(F)cc5)CC4=O)cc31)C(C)(C)NCC2 [Example 16, 4-(4-Fluorophenethyl)-1-(1,1,5-trimethyl-2,3,4,5-tetrahydro-1H-pyrido[4,3-b]indol-7-yl)piperazin-2-one dihydrochloride]	17 nM

Compounds with a lower Ki, results first:

Ki	Compound
12 nM	CN1CCc2c(c3ccc(N4CCN(CCc5ccccc5)CC4=O)cc3n2C)C1 [Example 7, 1-(2,5-Dimethyl-2,3,4,5-tetrahydro-1H-pyrido[4,3-b]indol-7-yl)-4-phenethylpiperazin-2-one hydrochloride]
11 nM	CC1Cc2c(c3ccc(N4CCN(CCc5ccc(F)cc5)CC4=O)cc3n2C)CN1.Cl (single isomer, unassigned; enantiomer a) [Example 15, 1-(3,5-Dimethyl-2,3,4,5-tetrahydro-1H-pyrido[4,3-b]indol-7-yl)-4-(4-fluorophenethyl)piperazin-2-one hydrochloride (Enantiomer A)]
11 nM	Cn1c2c(c3ccc(N4CCN(CCc5ccccc5)CC4=O)cc31)CNCC2 [Example 6, 1-(5-Methyl-2,3,4,5-tetrahydro-1H-pyrido[4,3-b]indol-7-yl)-4-phenethylpiperazin-2-one dihydrochloride]
9.7 nM	CC1Cc2c(c3ccc(N4CCN(CCc5ccc(F)cc5)CC4=O)cc3n2C)CN1.Cl (centres unmarked) [Example 12, 1-(3,5-Dimethyl-2,3,4,5-tetrahydro-1H-pyrido[4,3-b]indol-7-yl)-4-(4-fluorophenethyl)piperazin-2-one hydrochloride]
7.6 nM	CC1Cc2c(c3ccc(N4CCN(CCc5ccc(Cl)cc5)CC4=O)cc3n2C)CN1 (single isomer, unassigned; enantiomer a) [Example 17, 4-(4-Chlorophenethyl)-1-(3,5-dimethyl-2,3,4,5-tetrahydro-1H-pyrido[4,3-b]indol-7-yl)piperazin-2-one hydrochloride (Enantiomer A)]
7 nM	Cn1c2c(c3ccc(N4CCN(CCc5ccc(F)cc5)CC4=O)cc31)CNCC2 [Example 11, 4-(4-Fluorophenethyl)-1-(5-methyl-2,3,4,5-tetrahydro-1H-pyrido[4,3-b]indol-7-yl)piperazin-2-one dihydrochloride]
5.8 nM	Cn1c2c(c3ccc(N4CCN(CCc5ccc(Cl)cc5)CC4=O)cc31)CNCC2 [Example 14, 4-(4-Chlorophenethyl)-1-(5-methyl-2,3,4,5-tetrahydro-1H-pyrido[4,3-b]indol-7-yl)piperazin-2-one dihydrochloride]
5.3 nM	CC1Cc2c(c3ccc(N4CCN(CCc5ccc(Cl)cc5)CC4=O)cc3n2C)CN1.Cl (centres unmarked) [Example 13, 4-(4-Chlorophenethyl)-1-(3,5-dimethyl-2,3,4,5-tetrahydro-1H-pyrido[4,3-b]indol-7-yl)piperazin-2-one hydrochloride]

tested on: not given; experiment: not given; conditions: not given

melting point	Compound
295 to 300 °C	CC1Cc2c(c3ccc(N4CCN(CCc5ccc(F)cc5)CC4=O)cc3n2C)CN1.Cl (single isomer, unassigned; enantiomer a) [Example 15, 1-(3,5-Dimethyl-2,3,4,5-tetrahydro-1H-pyrido[4,3-b]indol-7-yl)-4-(4-fluorophenethyl)piperazin-2-one hydrochloride (Enantiomer A)]
280 to 285 °C	CC1Cc2c(c3ccc(N4CCN(CCc5ccc(F)cc5)CC4=O)cc3n2C)CN1.Cl (centres unmarked) [Example 12, 1-(3,5-Dimethyl-2,3,4,5-tetrahydro-1H-pyrido[4,3-b]indol-7-yl)-4-(4-fluorophenethyl)piperazin-2-one hydrochloride]
294 to 300 °C	CC1Cc2c(c3ccc(N4CCN(CCc5ccc(Cl)cc5)CC4=O)cc3n2C)CN1.Cl (centres unmarked) [Example 13, 4-(4-Chlorophenethyl)-1-(3,5-dimethyl-2,3,4,5-tetrahydro-1H-pyrido[4,3-b]indol-7-yl)piperazin-2-one hydrochloride]
